Laboratory results from ChEMBL document CHEMBL1201862, “PubChem BioAssay data set” (2004).
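Cells were grown in 96-well plates and exposed to each compound for 48 hours at five concentrations; endpoints were interpolated linearly between bracketing concentrations, or set to the highest concentration if not reached. Abbreviation: GI50, concentration required for 50% inhibition of growth.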 Activity calls are given as the source filed them. No stated cut-off is given here; in the data, active = GI50 up to about 1.1 µM and inactive = higher.

Assays:
Assay in all cases: growth of human tumour cells (NCI), 48 h
HT-29 = tested on: HT-29
A549 = tested on: A549
ACHN = tested on: ACHN
A498 = tested on: A498
HOP-92 = tested on: HOP-92
Malme-3M = tested on: Malme-3M
DU-145 = tested on: DU-145
XF498 = tested on: XF498
SW-620 = tested on: SW-620
SK-OV-3 = tested on: SK-OV-3
T47D = tested on: T47D
HOP-62 = tested on: HOP-62
NCI-H226 = tested on: NCI-H226
KM12 = tested on: KM12
LXFL 529 = tested on: LXFL 529
SNB-19 = tested on: SNB-19
HL-60 = tested on: HL-60
OVCAR-5 = tested on: OVCAR-5
NCI-H23 = tested on: NCI-H23
SR = tested on: SR
MOLT-4 = tested on: MOLT-4
HCC 2998 = tested on: HCC 2998
SF-539 = tested on: SF-539
BT-549 = tested on: BT-549
IGROV-1 = tested on: IGROV-1
Hs-578T = tested on: Hs-578T
COLO 205 = tested on: COLO 205
SN12C = tested on: SN12C
OVCAR-4 = tested on: OVCAR-4
U-251 = tested on: U-251
PC-3 = tested on: PC-3
UACC-62 = tested on: UACC-62
RPMI-8226 = tested on: RPMI-8226
HOP-18 = tested on: HOP-18
SF-295 = tested on: SF-295
M19-MEL = tested on: M19-MEL
KM-20L2 = tested on: KM-20L2
SK-MEL-5 = tested on: SK-MEL-5
SF-268 = tested on: SF-268
M14 = tested on: M14
NCI-H522 = tested on: NCI-H522
SK-MEL-28 = tested on: SK-MEL-28
RXF 393 = tested on: RXF 393
UACC-257 = tested on: UACC-257
OVCAR-3 = tested on: OVCAR-3
UO-31 = tested on: UO-31
HCT-116 = tested on: HCT-116
DMS-114 = tested on: DMS-114
SNB-75 = tested on: SNB-75
K562 = tested on: K562
LOX IMVI = tested on: LOX IMVI
NCI-H460 = tested on: NCI-H460
NCI/ADR-RES = tested on: NCI/ADR-RES
786-0 = tested on: 786-0
SK-MEL-2 = tested on: SK-MEL-2
DLD-1 = tested on: DLD-1
OVCAR-8 = tested on: OVCAR-8
MDA-MB-231 = tested on: MDA-MB-231
SNB-78 = tested on: SNB-78
MDA-N = tested on: MDA-N
RXF 631 = tested on: RXF 631
CCRF-CEM = tested on: CCRF-CEM
HCT-15 = tested on: HCT-15
MCF7 = tested on: MCF7
MDA-MB-435 = tested on: MDA-MB-435
EKVX = tested on: EKVX
CAKI-1 = tested on: CAKI-1
TK-10 = tested on: TK-10
DMS-273 = tested on: DMS-273

COc1ccc2c(c1)[n+]([O-])c(/C(C)=N/NC(N)=S)c(C)[n+]2[O-]
GI50 (HT-29): 52.1 µM (inactive) | GI50 (A549): 53.7 µM (inactive) | GI50 (ACHN): 38.5 µM (inactive) | GI50 (A498): > 100 µM (inactive) | GI50 (HOP-92): > 85.9 µM (inactive) | GI50 (Malme-3M): 75.7 µM (inactive) | GI50 (DU-145): 44.2 µM (inactive) | GI50 (XF498): 39 µM (inactive) | GI50 (SW-620): 50.4 µM (inactive) | GI50 (SK-OV-3): > 100 µM (inactive) | GI50 (T47D): 49.2 µM (inactive) | GI50 (HOP-62): 75.3 µM (inactive) | GI50 (NCI-H226): > 61.7 µM (inactive) | GI50 (KM12): > 85.9 µM (inactive) | GI50 (LXFL 529): 51.6 µM (inactive) | GI50 (SNB-19): > 100 µM (inactive) | GI50 (HL-60): 1.5 µM (inactive) | GI50 (OVCAR-5): > 88.5 µM (inactive) | GI50 (NCI-H23): > 67.9 µM (inactive) | GI50 (SR): 2 µM (inactive) | GI50 (MOLT-4): 17.8 µM (inactive) | GI50 (HCC 2998): 20.5 µM (inactive) | GI50 (SF-539): > 59.8 µM (inactive) | GI50 (BT-549): 90.4 µM (inactive) | GI50 (IGROV-1): > 88.1 µM (inactive) | GI50 (Hs-578T): > 100 µM (inactive) | GI50 (COLO 205): 38.8 µM (inactive) | GI50 (SN12C): 39.4 µM (inactive) | GI50 (OVCAR-4): 58.9 µM (inactive) | GI50 (U-251): 44.4 µM (inactive) | GI50 (PC-3): > 100 µM (inactive) | GI50 (UACC-62): 44.8 µM (inactive) | GI50 (RPMI-8226): 57 µM (inactive) | GI50 (HOP-18): 95.1 µM (inactive) | GI50 (SF-295): 63.1 µM (inactive) | GI50 (M19-MEL): 86.9 µM (inactive) | GI50 (KM-20L2): 39.4 µM (inactive) | GI50 (SK-MEL-5): 41.2 µM (inactive) | GI50 (SF-268): 46.3 µM (inactive) | GI50 (M14): 37.6 µM (inactive) | GI50 (NCI-H522): 31 µM (inactive) | GI50 (SK-MEL-28): > 56.2 µM (inactive) | GI50 (RXF 393): > 72.9 µM (inactive) | GI50 (UACC-257): > 60.3 µM (inactive) | GI50 (OVCAR-3): 33.9 µM (inactive) | GI50 (UO-31): 49.7 µM (inactive) | GI50 (HCT-116): 39.9 µM (inactive) | GI50 (DMS-114): 36 µM (inactive) | GI50 (SNB-75): 79.4 µM (inactive) | GI50 (K562): 41.5 µM (inactive) | GI50 (LOX IMVI): 39.9 µM (inactive) | GI50 (NCI-H460): 27.8 µM (inactive) | GI50 (NCI/ADR-RES): 28.8 µM (inactive) | GI50 (786-0): 43.6 µM (inactive) | GI50 (SK-MEL-2): > 96.4 µM (inactive) | GI50 (DLD-1): 57.9 µM (inactive) | GI50 (OVCAR-8): 46.3 µM (inactive) | GI50 (MDA-MB-231): 89.7 µM (inactive) | GI50 (SNB-78): > 100 µM (inactive) | GI50 (MDA-N): 51.3 µM (inactive) | GI50 (RXF 631): 44.4 µM (inactive) | GI50 (CCRF-CEM): 27.6 µM (inactive) | GI50 (HCT-15): 45.6 µM | GI50 (MCF7): 41.4 µM (inactive) | GI50 (MDA-MB-435): 78.3 µM (inactive) | GI50 (EKVX): 44 µM (inactive) | GI50 (CAKI-1): 70.5 µM (inactive) | GI50 (TK-10): > 58.9 µM (inactive)

CCc1nc2ccccc2c(=O)n1/N=C(\N=N\c1ccc(Cl)cc1)c1ccc(N(C)C)cc1
GI50 (A549): 42.7 µM (inactive) | GI50 (ACHN): 28.7 µM (inactive) | GI50 (A498): 38.3 µM (inactive) | GI50 (HOP-92): 13.7 µM (inactive) | GI50 (XF498): 25.1 µM (inactive) | GI50 (SW-620): 45.1 µM (inactive) | GI50 (SK-OV-3): 27.7 µM (inactive) | GI50 (HOP-62): 13.3 µM (inactive) | GI50 (LXFL 529): 23.7 µM (inactive) | GI50 (HL-60): 20.5 µM (inactive) | GI50 (NCI-H23): 22.8 µM (inactive) | GI50 (DMS-273): 32.3 µM (inactive) | GI50 (MOLT-4): 20.6 µM (inactive) | GI50 (SF-539): 30.3 µM (inactive) | GI50 (COLO 205): 27.2 µM (inactive) | GI50 (SN12C): 27.7 µM (inactive) | GI50 (U-251): 27.3 µM (inactive) | GI50 (RPMI-8226): 17.4 µM (inactive) | GI50 (HOP-18): 25.5 µM (inactive) | GI50 (KM-20L2): 23.6 µM (inactive) | GI50 (SK-MEL-5): 21.9 µM (inactive) | GI50 (SF-268): 32.1 µM (inactive) | GI50 (M14): 33.3 µM (inactive) | GI50 (NCI-H522): 22.3 µM (inactive) | GI50 (SK-MEL-28): 30.1 µM (inactive) | GI50 (RXF 393): 56 µM (inactive) | GI50 (UO-31): 12.2 µM (inactive) | GI50 (HCT-116): 17.7 µM (inactive) | GI50 (DMS-114): 12.2 µM (inactive) | GI50 (K562): 16.7 µM (inactive) | GI50 (LOX IMVI): 47.5 µM (inactive) | GI50 (NCI-H460): 24.5 µM (inactive) | GI50 (DLD-1): 30.1 µM (inactive) | GI50 (OVCAR-8): 34.9 µM (inactive) | GI50 (RXF 631): 67.6 µM (inactive) | GI50 (CCRF-CEM): 27.6 µM (inactive) | GI50 (HCT-15): 29.2 µM | GI50 (EKVX): 28.1 µM (inactive) | GI50 (TK-10): 61.9 µM (inactive)
